The text below walks through data of US11066455B2, “Tmem100 peptides and variants thereof and their use in treating or preventing diseases or conditions” (The Johns Hopkins University, priority 2014, dated 2021).

The chains are these.
B2: TRPV1 (endogenous, mouse DRG) (receptor, UniProt Q704Y3 1-839, looked up)
chain: MEKWASLDSDESEPPAQENSCPDPPDRDPNSKPPPAKPHIFATRSRTRLFGKGDSEEASPMDCPYEEGGLASCPIITVSSVVTLQRSVDGPTCLRQTSQDSVSTGVETPPRLYDRRSIFDAVAQSNCQELESLLSFLQKSKKRLTDSEFKDPETGKTCLLKAMLNLHNGQNDTIALLLDIARKTDSLKQFVNASYTDSYYKGQTALHIAIERRNMALVTLLVENGADVQAAANGDFFKKTKGRPGFYFGELPLSLAACTNQLAIVKFLLQNSWQPADISARDSVGNTVLHALVEVADNTADNTKFVTNMYNEILILGAKLHPTLKLEELTNKKGLTPLALAASSGKIGVLAYILQREIHEPECRHLSRKFTEWAYGPVHSSLYDLSCIDTCEKNSVLEVIAYSSSETPNRHDMLLVEPLNRLLQDKWDRFVKRIFYFNFFVYCLYMIIFTTAAYYRPVEGLPPYKLNNTVGDYFRVTGEILSVSGGVYFFFRGIQYFLQRRPSLKSLFVDSYSEILFFVQSLFMLVSVVLYFSHRKEYVASMVFSLAMGWTNMLYYTRGFQQMGIYAVMIEKMILRDLCRFMFVYLVFLFGFSTAVVTLIEDGKNNSLPVESPPHKCRGSACRPGNSYNSLYSTCLELFKFTIGMGDLEFTENYDFKAVFIILLLAYVILTYILLLNMLIALMGETVNKIAQESKNIWKLQRAITILDTEKSFLKCMRKAFRSGKLLQVGFTPDGKDDFRWCFRVDEVNWTTWNTNVGIINEDPGNCEGVKRTLSFSLRSGRVSGRNWKNFALVPLLRDASTRDRHSTQPEEVQLKHYTGSLKPEDAEVFKDSMAPGEK
notes: whole, on cells

* marks the point of attachment. Palmitoyl = CCCCCCCCCCCCCCCC(=O)*

The test system of assay [1] is SNL-induced mechanical hyperalgesia in wild-type mice. Description: Spinal nerve ligation (SNL) in wild-type mice, mechanical hyperalgesia. Type of assay: in vivo, mouse. The following applies: day 6 post ligation, 4 hrs post CPP; 5 μl of 2 mM intradermal in hindpaws. As to the method:
In the wild-type mice with spinal nerve ligation (SNL), mechanical hyperalgesia is observed 6 days post ligation. Palmitoylated (Pal) CPP tailored to the C-terminus of human Tmem100-3Q alleviates neuropathic pain/mechanical allodynia in SNL. n=6, *p<0.05 at Day 6 4 hrs post CPP treatment. Scrambled: open bar; human P2-Mut (T100-Mut): black bar (FIG. 17). Peptides (5 μl of 2 mM) were injected intradermally in the hindpaws. Sequences for CPP used in the SNL experiment:
Human P2-Mut (T100-Mut) Pal-[…]-OH (SEQ ID NO: 7); Scrambled Pal-[…]-OH (SEQ ID NO: 19). Pal-palmitoylated in the N termini for each CPP.

In assay [2] the test system is neuropathic mechanical hypersensitivity in SNL rats. Type of assay: in vivo, rat. The conditions noted are these: intrathecal 10 μl. An excerpt:
An modified L5 SNL model was produced as described in previously (He et al., 2014; Shechter et al., 2013). Male Sprague-Dawley rats (200-350 g, Harlan, Indianapolis, Ind.) were anesthetized with 2% isoflurane. The left L5 spinal nerve was ligated with a 6-0 silk suture and cut distally. The muscle layer was closed with 4-0 chromic gut suture and the skin closed with metal clips. For intrathecal catheter implantation, a small slit was cut in the atlanto-occipital membrane of rats, into which a saline-filled piece of PE-10 tubing (6-7 cm) was inserted (He et al., 2014). […] Hypersensitivity to punctuate mechanical stimulation was determined with the up-down method by using a series of von Frey filaments (0.38-15.1 g) applied for 4-6 seconds to the test area on the plantar surface of the hindpaw (Chaplan et al., 1994; He et al., 2014). The PWT was determined according to the formula provided by Dixon (Dixon, 1980). […] HC-030031 was purchased from Tocris Bioscience (Bristol, UK). Both drugs were dissolved in 10% dimethylsulfoxide (DMSO), 5% Tween 80 and 85% sterile saline solution. The final working solution which was injected by intrathecal route contained <1% DMSO. The number of animals used in each study was based on experience with similar studies and power analysis calculations. Animals were randomized to the different treatment groups and blinded the experimenter to drug treatment to reduce selection and observation bias. After the experiments were completed, no data point was excluded. STATISTICA 6.0 software (StatSoft, Inc., Tulsa, Okla.) was used to conduct all statistical analyses. The Tukey honestly significant difference (HSD) post-hoc test was used to compare specific data points. Bonferroni correction was applied for multiple comparisons. Two-tailed tests were performed, and data are expressed as mean±SEM; P<0.05 was considered significant in all tests.
The sequence from the last 28 amino acids of the C-terminus of the Tmem100-3Q mutant protein was synthesized and myristoylated at its N-terminus (myr-[…]-COOH) (SEQ ID NO: 8) by Twentyfirst Century Biochemicals. […] For the calcium imaging assay, the peptides were added to the calcium imaging buffer with a final concentration of 200 nM and incubated for at least […] at room temperature. For the mice behavioral assays, the peptides (5 μL, 2 mM) were injected subcutaneously in the hindpaw at least 30 minutes before testing. For the rat behavior assays, human T100-3Q (h-T100), a palmitoylated cell permeable peptide mutated based on the C terminus of human sequence in Tmem100, was applied. The sequence is Palmitoyl-[…]-COOH (SEQ ID NO: 7).

Assay [3] deals with ongoing neuropathic pain in SNL rats. As to the kind of experiment: Conditioned place preference test for ongoing pain in SNL rats. The assay is classed as in vivo, rat. The conditions noted are these: intrathecal 50 μM, 10 μl; for conditioned place preference: time in drug-paired chamber, SNL rats: scramble peptide-paired chamber as comparison. An excerpt: Ongoing, or spontaneous, pain, which is most bothersome to patients, is difficult to treat and difficult to study in animals. The conditioned place preference test has been successfully developed to reveal the presence of non-evoked, ongoing pain and pain relief based on the preference of an animal for the context paired with a pain-relief treatment. The conditioned place preference can also capture the aversive aspects of pain. Strikingly, many studies have shown that the rodent conditioned place preference test accurately reflects the effectiveness of human clinical treatments. Therefore, this test is a powerful approach to investigate the potential effectiveness of new treatments and mechanisms for relief of ongoing pain. Two previous studies have examined the role of TRPA1 in ongoing pain by the conditioned place preference test. […] Because the antagonists used in those studies (HC030031 and Chem5861528) target TRPA1 monomers, it is possible that T100-Mut can inhibit ongoing pain by modulating the TRPA1/V1 complex. This possibility was tested in rodents with SNL-induced ongoing pain using the conditioned place preference test. […] Systemic administration of gabapentin, an analgesic that is known to alleviate neuropathic pain, was used as a positive control (FIG. 16B).

Assay [4] addresses TRPV1-CFP. Description: FRET with TIRF microscopy, COS-7 cells, Tmem100-3Q co-expressed.
For assay [5], the target named is TRPV1-CFP. Description: FRET with TIRF microscopy, COS-7 cells, wild-type Tmem100 co-expressed.
For assay [6], the target named is T1, TRPA1 (endogenous, mouse DRG) (mouse, UniProt Q8BLA8 1-1125).
T1 construct: whole, on cells
Description: co-immunoprecipitation from mouse DRG lysates. The text has this: (§1) All groups were transfected with TRPV1-CFP and TRPA1-YFP except for the Rho-pYC (as a positive control for maximal effects of the system) and M-V1 (negative control) groups, where Rho-pYC and membrane-tethered YFP+TRPV1-CFP, respectively, were transfected instead. FRET efficiencies were highest in Tmem100-3Q-transfected cells (A1-V1-3Q), followed by the empty vector-transfected groups (A1-V1), and were lowest in cells transfected with wild-type Tmem100 (A1-V1-WT). The statistic is one-way ANOVA (*$p<0.05$; $p<0.01$, *$p<0.001$). Data are presented as mean±SEM. FIG. 5F is a table showing a summary of the data from FIG. 5E.
(§2) DRG from all levels or CHO cells transfected with Trpv1, Trpa1, and Tmem100-myc were used. Whole cell DRG or CHO cells lysates were generated 24 h after transfection, and Co-IP with either 1 µg myc antibody (EMD Millipore) or 1 µg TRPV1 antibody (Santa Cruz, R130) as described (Akopian et al., 2007) Immunoprecipitants and cell lysate aliquots were resolved by SDS-PAGE and immunoblotted with 1:1000 anti-TRPV1 antibody (Santa Cruz, R130), 1:500 anti-Tmem100 antibody, 1:1000 anti-TRPA1 (Novus), or 1:1000 anti-myc (EMD Millipore). Secondary antibodies for visualization included donkey anti-rabbit and anti-mouse HRP-conjugated antibodies (GE Biosciences). […]

For assay [7], the target named is B2. Description: co-immunoprecipitation from mouse DRG lysates.
Description: as §1, §2

The target in assay [8] is T1, TRPA1 (endogenous, mouse DRG). As to the kind of experiment: co-IP with Tmem100 and TRPV1 antibodies, Western blot, mouse DRG lysates.
Description: as §1, §2
(In general: Immunoblotting shows a protein as a band on a membrane.)

T1 sequence (Q8BLA8 whole entry): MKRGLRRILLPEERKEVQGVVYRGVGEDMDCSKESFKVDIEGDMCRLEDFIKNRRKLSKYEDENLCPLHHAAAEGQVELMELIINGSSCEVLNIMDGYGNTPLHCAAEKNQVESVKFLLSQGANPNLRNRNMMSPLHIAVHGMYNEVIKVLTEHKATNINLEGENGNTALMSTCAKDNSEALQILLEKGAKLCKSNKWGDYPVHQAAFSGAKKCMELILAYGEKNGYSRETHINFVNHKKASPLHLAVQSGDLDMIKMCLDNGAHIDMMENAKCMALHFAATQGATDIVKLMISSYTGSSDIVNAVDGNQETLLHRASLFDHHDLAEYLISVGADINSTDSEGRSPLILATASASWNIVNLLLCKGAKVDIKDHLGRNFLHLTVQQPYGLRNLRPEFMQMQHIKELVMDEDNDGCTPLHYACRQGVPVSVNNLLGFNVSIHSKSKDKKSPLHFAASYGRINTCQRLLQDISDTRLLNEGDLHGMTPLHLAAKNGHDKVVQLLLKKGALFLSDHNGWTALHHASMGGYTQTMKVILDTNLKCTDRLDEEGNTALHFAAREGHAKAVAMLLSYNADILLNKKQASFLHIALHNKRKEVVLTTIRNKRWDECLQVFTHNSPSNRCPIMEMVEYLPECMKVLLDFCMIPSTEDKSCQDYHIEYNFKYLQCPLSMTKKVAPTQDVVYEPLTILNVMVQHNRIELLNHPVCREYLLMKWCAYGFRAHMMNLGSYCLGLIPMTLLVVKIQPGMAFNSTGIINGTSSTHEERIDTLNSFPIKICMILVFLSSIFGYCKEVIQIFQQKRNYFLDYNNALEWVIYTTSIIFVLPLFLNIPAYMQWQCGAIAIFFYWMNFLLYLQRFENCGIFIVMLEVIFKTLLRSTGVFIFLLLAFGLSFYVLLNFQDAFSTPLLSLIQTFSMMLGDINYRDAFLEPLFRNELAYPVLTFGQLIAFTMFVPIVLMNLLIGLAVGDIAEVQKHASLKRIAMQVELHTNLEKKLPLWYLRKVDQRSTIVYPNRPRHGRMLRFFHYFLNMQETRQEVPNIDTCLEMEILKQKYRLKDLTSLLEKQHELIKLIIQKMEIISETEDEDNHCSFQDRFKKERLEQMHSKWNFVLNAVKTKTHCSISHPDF

In the case of “Palmitoyl-WKVRQRSKKAQQQESQTALVANQRSLFA-COOH (Palmitoyl-WKVRQRSKKAQQQESQTALVANQRSLFA-OH; SMILES CCCCCCCCCCCCCCCC(=O)N[C@@H](Cc1c[nH]c2ccccc12)C(=O)N[C@@H](CCCCN)C(=O)N[C@H](C(=O)N[C@@H](CCCNC(=N)N)C(=O)N[C@@H](CCC(N)=O)C(=O)N[C@@H](CCCNC(=N)N)C(=O)N[C@@H](CO)C(=O)N[C@@H](CCCCN)C(=O)N[C@@H](CCCCN)C(=O)N[C@@H](C)C(=O)N[C@@H](CCC(N)=O)C(=O)N[C@@H](CCC(N)=O)C(=O)N[C@@H](CCC(N)=O)C(=O)N[C@@H](CCC(=O)O)C(=O)N[C@@H](CO)C(=O)N[C@@H](CCC(N)=O)C(=O)N[C@H](C(=O)N[C@@H](C)C(=O)N[C@@H](CC(C)C)C(=O)N[C@H](C(=O)N[C@@H](C)C(=O)N[C@@H](CC(N)=O)C(=O)N[C@@H](CCC(N)=O)C(=O)N[C@@H](CCCNC(=N)N)C(=O)N[C@@H](CO)C(=O)N[C@@H](CC(C)C)C(=O)N[C@@H](Cc1ccccc1)C(=O)N[C@@H](C)C(=O)O)C(C)C)[C@@H](C)O)C(C)C; listed as Homo sapiens) [h-T100]”, the “SNL-induced mechanical hyperalgesia / allodynia in mice” value in assay [1] is listed as “alleviates”. The “contralateral PWT after drug injection” value in assay [2] was “no significant change”. Besides, the “ipsilateral paw withdrawal threshold (PWT) vs pre-drug” value in assay [2] (h-T100 10-100 μM, HC-030031 10-200 μM, scrambled 100 μM) is listed as “dose-dependently increased”. Further, the “conditioned place preference: time in drug-paired chamber, SNL rats” value is on record as “increased” in assay [3] (listed as P2-Mut) and “induced robust the conditioned place preference” in assay [3] (listed as human T100-Mut). Further, the “chamber preference in sham-operated rats” value in assay [3] (sham-operated) is listed as “did not induce chamber preference”.

TRPA1-YFP (receptor): the increase of the TRPA1-TRPV1 interaction (FRET efficiency) against cells expressing only TRPA1-V1 with TRPV1-CFP [4] amounted to 43%. The decrease of FRET efficiency against cells expressing only TRPA1-V1 in the assay with TRPV1-CFP [5] was 34%.

B1: Tmem100 (wild-type, full-length, mouse) (other)
chain: MTEESTKENLGAPKSPTPVTMEKNPKREVVVTTGPLVSEVQLMAATGGAELSCYRCIIPFAVVVFITGIVVTAVAYSFNSHGSIISIFGLVLLSSGLFLLASSALCWKVRQRNKKVKRRESQTALVVNQRCLFA
notes: also called Pirt2; T100
For B1, the binding result in assay [6] and in assay [7] was “binds” each time.

Take B2: the binding result in assay [8] is listed as “binds”.
